Reference: PubChem BioAssay (NCI)
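Interpolation was linear, between the two tested concentrations surrounding the appropriate level; five concentrations were tested over 48 hours in 96-well plates. Here, GI50 denotes the concentration required for 50% inhibition of growth. At the TGI there is no net growth.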

Assays:
Test in all cases: NCI-60 cell line screen, 48 h
BT-549 breast = tested on: BT-549 breast
UACC-257 melanoma = tested on: UACC-257 melanoma
LOX IMVI melanoma = tested on: LOX IMVI melanoma
CCRF-CEM leukemia = tested on: CCRF-CEM leukemia
TK-10 renal = tested on: TK-10 renal
SF-268 CNS = tested on: SF-268 CNS
SK-MEL-5 melanoma = tested on: SK-MEL-5 melanoma
HCT-15 colon = tested on: HCT-15 colon
NCI-H226 lung = tested on: NCI-H226 lung
PC-3 prostate = tested on: PC-3 prostate
OVCAR-3 ovarian = tested on: OVCAR-3 ovarian
IGROV1 ovarian = tested on: IGROV1 ovarian
COLO 205 colon = tested on: COLO 205 colon
M14 melanoma = tested on: M14 melanoma
786-0 renal = tested on: 786-0 renal
MDA-MB-231 breast = tested on: MDA-MB-231 breast
A498 renal = tested on: A498 renal
RXF 393 renal = tested on: RXF 393 renal
NCI-H460 lung = tested on: NCI-H460 lung
MOLT-4 leukemia = tested on: MOLT-4 leukemia
HL-60(TB) leukemia = tested on: HL-60(TB) leukemia
U251 CNS = tested on: U251 CNS
NCI-H23 lung = tested on: NCI-H23 lung
HOP-62 NSCLC = tested on: HOP-62 NSCLC
HOP-92 NSCLC = tested on: HOP-92 NSCLC
HCC-2998 colon = tested on: HCC-2998 colon
NCI/ADR-RES ovarian = tested on: NCI/ADR-RES ovarian
SK-MEL-2 melanoma = tested on: SK-MEL-2 melanoma
HS 578T breast = tested on: HS 578T breast
CAKI-1 renal = tested on: CAKI-1 renal
MALME-3M melanoma = tested on: MALME-3M melanoma
NCI-H522 lung = tested on: NCI-H522 lung
DU-145 prostate = tested on: DU-145 prostate
SW-620 colon = tested on: SW-620 colon
A549 NSCLC = tested on: A549 NSCLC
RPMI-8226 leukemia = tested on: RPMI-8226 leukemia
MCF7 breast = tested on: MCF7 breast
SNB-19 CNS = tested on: SNB-19 CNS
K-562 leukemia = tested on: K-562 leukemia
OVCAR-5 ovarian = tested on: OVCAR-5 ovarian
OVCAR-4 ovarian = tested on: OVCAR-4 ovarian
UO-31 renal = tested on: UO-31 renal
SN12C renal = tested on: SN12C renal
KM12 colon = tested on: KM12 colon
HCT-116 colon = tested on: HCT-116 colon
SK-OV-3 ovarian = tested on: SK-OV-3 ovarian
HT29 colon = tested on: HT29 colon
SF-295 CNS = tested on: SF-295 CNS
SNB-75 CNS = tested on: SNB-75 CNS
SK-MEL-28 melanoma = tested on: SK-MEL-28 melanoma
OVCAR-8 ovarian = tested on: OVCAR-8 ovarian
EKVX NSCLC = tested on: EKVX NSCLC
UACC-62 melanoma = tested on: UACC-62 melanoma
SF-539 CNS = tested on: SF-539 CNS
ACHN renal = tested on: ACHN renal
T-47D breast = tested on: T-47D breast
MDA-MB-435 = tested on: MDA-MB-435

Question: With O=C(CSCC(=O)N/N=C/c1cccc(OCc2ccccc2)c1)N/N=C/c1cccc(OCc2ccccc2)c1 as the compound, how does the TGI (BT-549 breast) read?
Answer: Its TGI is > 100 µM.

Question: And the TGI (UACC-257 melanoma)?
Answer: Its TGI is > 85.1 µM.

Question: What about the TGI (LOX IMVI melanoma) of the same compound?
Answer: Its TGI is > 100 µM.

Question: And the TGI (CCRF-CEM leukemia)?
Answer: Its TGI is > 100 µM.

Question: And the TGI (TK-10 renal)?
Answer: Its TGI is > 100 µM.

Question: What about the TGI (SF-268 CNS) of the same compound?
Answer: The TGI was > 100 µM.

Question: What about the TGI (SK-MEL-5 melanoma) of the same compound?
Answer: The TGI was > 92.8 µM.

Question: What about the TGI (HCT-15 colon) of the same compound?
Answer: The TGI was > 100 µM.

Question: And the TGI (NCI-H226 lung)?
Answer: Its TGI is > 100 µM.

Question: And the TGI (PC-3 prostate)?
Answer: The TGI was 97.8 µM.

Question: What about the TGI (OVCAR-3 ovarian) of the same compound?
Answer: The TGI was > 100 µM.

Question: And the TGI (IGROV1 ovarian)?
Answer: The TGI was > 100 µM.

Question: What about the GI50 (COLO 205 colon) of the same compound?
Answer: The GI50 was 37.5 µM.

Question: What about the TGI (COLO 205 colon) of the same compound?
Answer: The TGI was > 100 µM.

Question: What about the TGI (M14 melanoma) of the same compound?
Answer: The TGI was > 100 µM.

Question: And the TGI (786-0 renal)?
Answer: The TGI was > 100 µM.

Question: And the TGI (MDA-MB-231 breast)?
Answer: Its TGI is > 100 µM.

Question: What about the TGI (A498 renal) of the same compound?
Answer: The TGI was > 69.7 µM.

Question: And the TGI (RXF 393 renal)?
Answer: Its TGI is > 100 µM.

Question: What about the TGI (NCI-H460 lung) of the same compound?
Answer: Its TGI is > 100 µM.

Question: And the TGI (MOLT-4 leukemia)?
Answer: The TGI was 46.4 µM.

Question: And the TGI (HL-60(TB) leukemia)?
Answer: Its TGI is 53.3 µM.

Question: And the TGI (U251 CNS)?
Answer: Its TGI is > 100 µM.

Question: What about the TGI (NCI-H23 lung) of the same compound?
Answer: Its TGI is > 100 µM.

Question: What about the TGI (HOP-62 NSCLC) of the same compound?
Answer: The TGI was > 100 µM.

Question: And the TGI (HOP-92 NSCLC)?
Answer: The TGI was 97.2 µM.

Question: What about the TGI (HCC-2998 colon) of the same compound?
Answer: Its TGI is > 100 µM.

Question: And the TGI (NCI/ADR-RES ovarian)?
Answer: The TGI was > 100 µM.

Question: And the TGI (SK-MEL-2 melanoma)?
Answer: The TGI was > 100 µM.

Question: And the TGI (HS 578T breast)?
Answer: The TGI was > 100 µM.

Question: And the TGI (CAKI-1 renal)?
Answer: Its TGI is > 100 µM.

Question: What about the TGI (MALME-3M melanoma) of the same compound?
Answer: Its TGI is > 100 µM.

Question: And the TGI (NCI-H522 lung)?
Answer: The TGI was > 100 µM.

Question: What about the TGI (DU-145 prostate) of the same compound?
Answer: Its TGI is > 100 µM.

Question: What about the TGI (SW-620 colon) of the same compound?
Answer: Its TGI is > 100 µM.

Question: And the TGI (A549 NSCLC)?
Answer: The TGI was > 100 µM.

Question: What about the TGI (RPMI-8226 leukemia) of the same compound?
Answer: The TGI was 39.9 µM.

Question: What about the TGI (MCF7 breast) of the same compound?
Answer: The TGI was > 100 µM.

Question: What about the TGI (SNB-19 CNS) of the same compound?
Answer: The TGI was > 100 µM.

Question: What about the TGI (K-562 leukemia) of the same compound?
Answer: The TGI was > 100 µM.

Question: What about the TGI (OVCAR-5 ovarian) of the same compound?
Answer: The TGI was > 100 µM.

Question: What about the TGI (OVCAR-4 ovarian) of the same compound?
Answer: The TGI was > 100 µM.

Question: And the TGI (UO-31 renal)?
Answer: The TGI was > 100 µM.

Question: And the TGI (SN12C renal)?
Answer: Its TGI is > 74 µM.

Question: What about the TGI (KM12 colon) of the same compound?
Answer: The TGI was > 100 µM.

Question: And the TGI (HCT-116 colon)?
Answer: Its TGI is > 100 µM.

Question: And the TGI (SK-OV-3 ovarian)?
Answer: The TGI was > 100 µM.

Question: And the TGI (HT29 colon)?
Answer: Its TGI is > 100 µM.

Question: What about the TGI (SF-295 CNS) of the same compound?
Answer: Its TGI is > 100 µM.

Question: What about the TGI (SNB-75 CNS) of the same compound?
Answer: Its TGI is > 100 µM.

Question: What about the TGI (SK-MEL-28 melanoma) of the same compound?
Answer: Its TGI is > 100 µM.

Question: What about the TGI (OVCAR-8 ovarian) of the same compound?
Answer: Its TGI is > 100 µM.

Question: What about the TGI (EKVX NSCLC) of the same compound?
Answer: The TGI was > 100 µM.

Question: And the TGI (UACC-62 melanoma)?
Answer: The TGI was > 100 µM.

Question: And the TGI (SF-539 CNS)?
Answer: Its TGI is > 100 µM.

Question: What about the TGI (ACHN renal) of the same compound?
Answer: The TGI was > 100 µM.

Question: What about the TGI (T-47D breast) of the same compound?
Answer: The TGI was > 100 µM.

Question: What about the TGI (MDA-MB-435) of the same compound?
Answer: Its TGI is > 100 µM.

Question: What does the source list for Cc1cc(NC(=O)C(=O)Cc2cnc3ccccc3n2)c(S(=O)(=O)O)cc1Cl?
Answer: TGI (BT-549 breast): > 100 µM; TGI (UACC-257 melanoma): > 100 µM; TGI (LOX IMVI melanoma): > 100 µM; TGI (CCRF-CEM leukemia): > 100 µM; TGI (TK-10 renal): > 100 µM; TGI (SF-268 CNS): > 100 µM; TGI (SK-MEL-5 melanoma): > 100 µM; TGI (HCT-15 colon): > 100 µM; TGI (NCI-H226 lung): > 100 µM; TGI (PC-3 prostate): > 100 µM; TGI (OVCAR-3 ovarian): > 100 µM; TGI (IGROV1 ovarian): > 100 µM; TGI (COLO 205 colon): > 100 µM; TGI (M14 melanoma): > 100 µM; TGI (786-0 renal): > 100 µM; TGI (MDA-MB-231 breast): > 100 µM; TGI (A498 renal): > 100 µM; TGI (NCI-H460 lung): > 100 µM; TGI (MOLT-4 leukemia): > 100 µM; TGI (HL-60(TB) leukemia): > 100 µM; TGI (U251 CNS): > 100 µM; TGI (NCI-H23 lung): > 100 µM; TGI (HOP-92 NSCLC): > 100 µM; TGI (HCC-2998 colon): > 100 µM; TGI (NCI/ADR-RES ovarian): > 100 µM; TGI (SK-MEL-2 melanoma): > 100 µM; TGI (HS 578T breast): > 100 µM; TGI (CAKI-1 renal): > 100 µM; TGI (MALME-3M melanoma): > 100 µM; TGI (NCI-H522 lung): > 100 µM; TGI (DU-145 prostate): > 100 µM; TGI (SW-620 colon): > 100 µM; TGI (A549 NSCLC): > 100 µM; TGI (RPMI-8226 leukemia): > 100 µM; TGI (MCF7 breast): > 100 µM; TGI (SNB-19 CNS): > 100 µM; TGI (K-562 leukemia): > 100 µM; TGI (OVCAR-5 ovarian): > 100 µM; TGI (OVCAR-4 ovarian): > 100 µM; TGI (UO-31 renal): > 100 µM; TGI (SN12C renal): > 100 µM; TGI (KM12 colon): > 100 µM; TGI (HCT-116 colon): > 100 µM; TGI (SK-OV-3 ovarian): > 100 µM; TGI (HT29 colon): > 100 µM; TGI (SF-295 CNS): > 100 µM; TGI (SNB-75 CNS): > 100 µM; TGI (SK-MEL-28 melanoma): > 100 µM; TGI (OVCAR-8 ovarian): > 100 µM; TGI (EKVX NSCLC): > 100 µM; TGI (UACC-62 melanoma): > 100 µM; TGI (SF-539 CNS): > 100 µM; TGI (ACHN renal): > 100 µM; TGI (T-47D breast): > 100 µM; TGI (MDA-MB-435): > 100 µM
